US12338237B2, “Derivatives having 1,2,3,4-tetrahydronaphthalene moiety or pharmaceutically acceptable salt thereof and pharmaceutical compositions comprising the same” (YUHAN CORPORATION, priority 2019, dated 2025)
Like-named read-outs stand apart in the source and are kept apart here.

Tests used:
[1] = target: glucosylceramide synthase (GCS) (Homo sapiens (Human), UniProt Q16739); experiment: Evaluation of inhibitory activities against GCS (enzyme reaction with A549 cell lysate, NBD C6-ceramide, HPLC fluorescence); format: biochemical; conditions: GCS activity in A549 cell lysate, 37° C. for 90 minutes
Experimental: Ibiglustat, known as a GCS inhibitor, was used as a control.
After the cells attached to the culture dish were washed with phosphate buffered saline (PBS), the cells were scraped off with a cell scraper and then centrifuged (4000 rpm, 3 min, 4° C.) to collect the cells in a 50 ml tube. The cell pellets were suspended in a lysis buffer (50 mM HEPES, pH 7.3, containing 1× the protease/phosphatase inhibitor cocktail), lysed by sonication, and then the lysate was centrifuged (13000 rpm, 10 min, 4° C.). The obtained supernatant was used for the quantitative analysis of proteins. The amount of proteins was measured using the BCA protein assay kit, using bovine serum albumin as a standard.
Enzymatic reactions were initiated by sequentially adding the following reaction materials to a 96 deep-well plate. Thereafter, the enzymatic reactions were performed at 37° C. for 90 minutes.
The enzymatic reactions were stopped by adding 100 μl of chloroform/methanol (2:1, v/v). After vortexing for 15 seconds, each mixture was centrifuged (4000 rpm, 10 min, 18° C.). The lower layer (50 μl) was transferred to a new 96 deep-well plate and dried with a reduced concentrator.
Data analysis was performed by the following equations. % Area (Sample)=Area (GlcCer)/[Area (Cer)+Area (GlcCer)]×100 % GCS activity=[Area(Sample)−Area(ibiglustat)]/[Area(DMSO)−Area(ibiglustat)]×100

GM1 production = experiment: cells; format: cell-based

Chain of glucosylceramide synthase (GCS) (Q16739 whole entry, looked up): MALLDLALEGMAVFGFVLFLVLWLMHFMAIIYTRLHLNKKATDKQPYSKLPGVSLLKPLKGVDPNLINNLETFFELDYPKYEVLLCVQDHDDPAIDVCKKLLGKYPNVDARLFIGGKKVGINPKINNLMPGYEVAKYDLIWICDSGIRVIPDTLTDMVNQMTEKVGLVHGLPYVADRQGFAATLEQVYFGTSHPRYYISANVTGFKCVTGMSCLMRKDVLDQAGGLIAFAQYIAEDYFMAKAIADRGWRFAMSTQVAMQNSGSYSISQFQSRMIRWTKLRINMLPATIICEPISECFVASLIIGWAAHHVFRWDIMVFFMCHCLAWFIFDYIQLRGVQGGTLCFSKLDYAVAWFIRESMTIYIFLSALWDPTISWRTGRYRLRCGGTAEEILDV

COc1ccc(-c2ccc3c(c2)CCC(C)(C)C3NC(=O)O[C@@H]2CN3CCC2CC3)cc1Cl (stereo partly drawn) [Example 139, (S)-quinuclidin-3-yl (6-(3-chloro-4-methoxyphenyl)-2,2-dimethyl-1,2,3,4-tetrahydronaphthalen-1-yl)carbamate]
IC50 [1]: 4.78 nM
IC50 (GM1 production; Homo sapiens, Jurkat, 72 h): 8.8 nM

Cc1ccc(-c2ccc3c(c2)CCC(C)(C)C3NC(=O)O[C@@H]2CN3CCC2CC3)cc1 (stereo partly drawn) [Example 98, (S)-quinuclidin-3-yl (2,2-dimethyl-6-(p-tolyl)-1,2,3,4-tetrahydronaphthalen-1-yl)carbamate]
IC50 [1]: 1.7 nM
IC50 (GM1 production; Homo sapiens, Jurkat, 72 h): 2.05 nM

COc1cc2c(cc1-c1ccnc(OC(C)(C)C)c1)CCC(C)(C)C2NC(=O)O[C@@H]1CN2CCC1CC2 (stereo partly drawn) [Example 237, (S)-quinuclidin-3-yl (6-(2-(tert-butoxy)pyridin-4-yl)-7-methoxy-2,2-dimethyl-1,2,3,4-tetrahydronaphthalen-1-yl)carbamate]
IC50 [1]: 1.84 nM
IC50 (GM1 production; Homo sapiens, Jurkat, 72 h): 18.8 nM

CCOc1ccc(-c2ccc3c(c2)CCC(C)(C)C3NC(=O)O[C@@H]2CN3CCC2CC3)cc1F (stereo partly drawn) [Example 144, (S)-quinuclidin-3-yl (6-(4-ethoxy-3-fluorophenyl)-2,2-dimethyl-1,2,3,4-tetrahydronaphthalen-1-yl)carbamate]
IC50 [1]: 1.39 nM
IC50 (GM1 production; Homo sapiens, Jurkat, 72 h): 1.6 nM

CC(C)(C)c1ccc(-c2ccc3c(c2)CCC2(CC2)C3NC(=O)O[C@@H]2CN3CCC2CC3)cc1 (stereo partly drawn) [Example 225, (S)-quinuclidin-3-yl (6′-(4-(tert-butyl)phenyl)-3′,4′-dihydro-1′H-spiro[cyclopropane-1,2′-naphthalen]-1′-yl)carbamate]
IC50 [1]: 6.55 nM
IC50 (GM1 production; Homo sapiens, Jurkat, 72 h): 22.4 nM

CC1(C)CCc2cc(-c3cccc(Cl)c3)ccc2C1NC(=O)O[C@@H]1CN2CCC1CC2 (stereo partly drawn) [Example 91, (S)-quinuclidin-3-yl (6-(3-chlorophenyl)-2,2-dimethyl-1,2,3,4-tetrahydronaphthalen-1-yl)carbamate]
IC50 [1]: 0.81 nM
IC50 (GM1 production; Homo sapiens, Jurkat, 72 h): 2.86 nM

Cc1cccc(-c2ccc3c(c2)C(NC(=O)O[C@@H]2CN4CCC2CC4)CCC3)c1 (stereo partly drawn) [Example 85, (S)-quinuclidin-3-yl (7-(m-tolyl)-1,2,3,4-tetrahydronaphthalen-1-yl)carbamate]
IC50 [1]: 74.3 nM
IC50 (GM1 production; Homo sapiens, Jurkat, 72 h): 192 nM

COCOc1ccccc1-c1ccc2c(c1)C(NC(=O)O[C@@H]1CN3CCC1CC3)C(C)(C)CC2 (stereo partly drawn) [Example 170, (S)-quinuclidin-3-yl (7-(2-(methoxymethoxy)phenyl)-2,2-dimethyl-1,2,3,4-tetrahydronaphthalen-1-yl)carbamate]
IC50 [1]: 9.41 nM
IC50 (GM1 production; Homo sapiens, Jurkat, 72 h): 39 nM

CCCOc1ccc(-c2ccc3c(c2)CCC(C)(C)C3NC(=O)O[C@@H]2CN3CCC2CC3)cc1F (stereo partly drawn) [Example 145, (S)-quinuclidin-3-yl (6-(3-fluoro-4-propoxyphenyl)-2,2-dimethyl-1,2,3,4-tetrahydronaphthalen-1-yl)carbamate]
IC50 [1]: 0.87 nM
IC50 (GM1 production; Homo sapiens, Jurkat, 72 h): 0.7 nM

CC(C)Cc1ccc(-c2ccc3c(c2)CCC2(CC2)C3NC(=O)O[C@@H]2CN3CCC2CC3)cc1 (stereo partly drawn) [Example 224, (S)-quinuclidin-3-yl (6′-(4-isobutylphenyl)-3′,4′-dihydro-1′H-spiro[cyclopropane-1,2′-naphthalen]-1′-yl)carbamate]
IC50 [1]: 1.53 nM
IC50 (GM1 production; Homo sapiens, Jurkat, 72 h): 6.7 nM

COCOc1ccccc1-c1ccc2c(c1)CCCC2NC(=O)O[C@@H]1CN2CCC1CC2 (stereo partly drawn) [Example 30, (S)-quinuclidin-3-yl (6-(2-(methoxymethoxy)phenyl)-1,2,3,4-tetrahydronaphthalen-1-yl)carbamate]
IC50 [1]: 7.93 nM
IC50 (GM1 production; Homo sapiens, Jurkat, 72 h): 71.4 nM

O=C(NC1CCCc2cc(-c3cccc(Cl)c3)ccc21)O[C@@H]1CN2CCC1CC2 (stereo partly drawn) [Example 6, (S)-quinuclidin-3-yl (6-(3-chlorophenyl)-1,2,3,4-tetrahydronaphthalen-1-yl)carbamate]
IC50 [1]: 0.697 nM
IC50 (GM1 production; Homo sapiens, Jurkat, 72 h): 15.8 nM

CCc1ccccc1-c1ccc2c(c1)CCCC2NC(=O)O[C@@H]1CN2CCC1CC2 (stereo partly drawn) [Example 41, (S)-quinuclidin-3-yl (6-(2-ethylphenyl)-1,2,3,4-tetrahydronaphthalen-1-yl)carbamate]
IC50 [1]: 9.08 nM
IC50 (GM1 production; Homo sapiens, Jurkat, 72 h): 292 nM

CC(=O)c1sccc1-c1ccc2c(c1)CCC(C)(C)C2NC(=O)O[C@@H]1CN2CCC1CC2 (stereo partly drawn) [Example 150, (S)-quinuclidin-3-yl (6-(2-acetylthiophen-3-yl)-2,2-dimethyl-1,2,3,4-tetrahydronaphthalen-1-yl)carbamate]
IC50 [1]: 8.7 nM
IC50 (GM1 production; Homo sapiens, Jurkat, 72 h): 17.1 nM

CCc1cccc(-c2ccc3c(c2)CCC(C)(C)C3NC(=O)O[C@@H]2CN3CCC2CC3)c1 (stereo partly drawn) [Example 127, (S)-quinuclidin-3-yl (6-(3-ethylphenyl)-2,2-dimethyl-1,2,3,4-tetrahydronaphthalen-1-yl)carbamate]
IC50 [1]: 1.92 nM
IC50 (GM1 production; Homo sapiens, Jurkat, 72 h): 2 nM

COc1ccc(-c2ccc3c(c2)CCC(C)(C)C3NC(=O)O[C@@H]2CN3CCC2CC3)c(OC)c1 (stereo partly drawn) [Example 134, (S)-quinuclidin-3-yl (6-(2,4-dimethoxyphenyl)-2,2-dimethyl-1,2,3,4-tetrahydronaphthalen-1-yl)carbamate]
IC50 [1]: 2.95 nM
IC50 (GM1 production; Homo sapiens, Jurkat, 72 h): 6.6 nM

O=C(NC1CCCc2cc(-c3cc(F)ccc3F)ccc21)O[C@@H]1CN2CCC1CC2 (stereo partly drawn) [Example 16, (S)-quinuclidin-3-yl (6-(2,5-difluorophenyl)-1,2,3,4-tetrahydronaphthalen-1-yl)carbamate]
IC50 [1]: 3.96 nM
IC50 (GM1 production; Homo sapiens, Jurkat, 72 h): 34 nM

COc1ccccc1-c1ccc2c(c1)C(NC(=O)O[C@@H]1CN3CCC1CC3)CCC2 (stereo partly drawn) [Example 75, (S)-quinuclidin-3-yl (7-(2-methoxyphenyl)-1,2,3,4-tetrahydronaphthalen-1-yl)carbamate]
IC50 [1]: 22.7 nM
IC50 (GM1 production; Homo sapiens, Jurkat, 72 h): 138 nM

O=C(NC1c2ccc(-c3ccc(F)cc3)cc2CCC12CC2)O[C@@H]1CN2CCC1CC2 (stereo partly drawn) [Example 186, (S)-quinuclidin-3-yl (6′-(4-fluorophenyl)-3′,4′-dihydro-1′H-spiro[cyclopropane-1,2′-naphthalen]-1′-yl)carbamate]
IC50 [1]: 24.4 nM
IC50 (GM1 production; Homo sapiens, Jurkat, 72 h): 79.8 nM

O=C(NC1c2ccc(-c3cccc(C(F)(F)F)c3)cc2CCC12CC2)O[C@@H]1CN2CCC1CC2 (stereo partly drawn) [Example 192, (S)-quinuclidin-3-yl (6′-(3-(trifluoromethyl)phenyl)-3′,4′-dihydro-1′H-spiro[cyclopropane-1,2′-naphthalen]-1′-yl)carbamate]
IC50 [1]: 12.9 nM
IC50 (GM1 production; Homo sapiens, Jurkat, 72 h): 14 nM

CC(C)Oc1cccc(-c2ccc3c(c2)CCC2(CC2)C3NC(=O)O[C@@H]2CN3CCC2CC3)c1 (stereo partly drawn) [Example 208, (S)-quinuclidin-3-yl (6′-(3-isopropoxyphenyl)-3′,4′-dihydro-1′H-spiro[cyclopropane-1,2′-naphthalen]-1′-yl)carbamate]
IC50 [1]: 21.2 nM
IC50 (GM1 production; Homo sapiens, Jurkat, 72 h): 47.7 nM

CC1(C)CCc2cc(-c3cccc(F)c3F)ccc2C1NC(=O)O[C@@H]1CN2CCC1CC2 (stereo partly drawn) [Example 102, (S)-quinuclidin-3-yl (6-(2,3-difluorophenyl)-2,2-dimethyl-1,2,3,4-tetrahydronaphthalen-1-yl)carbamate]
IC50 (GM1 production; read-out: IC50): 1.43 nM

O=C(NC1CCCc2ccc(-c3cccc(C(F)(F)F)c3)cc21)O[C@@H]1CN2CCC1CC2 (stereo partly drawn) [Example 60, (S)-quinuclidin-3-yl (7-(3-(trifluoromethyl)phenyl)-1,2,3,4-tetrahydronaphthalen-1-yl)carbamate]
IC50 [1]: 106 nM
